Experimental findings from patent US20220324835A1 (Nurix Therapeutics, Inc., priority 2018, published 2022) are described below.

Assay [1] concerns the target T1, Cbl-b (Homo sapiens, UniProt Q13191). Description: Cbl-b inhibition assay (Cbl-b activity assay, FRET, Biological Example 1; 100 mM NaCl, 60 nM Src kinase). The note with it: upper bound stated in text lists; read-out: IC50 values in the Cbl-b inhibition assay of Biological Example 1. In kind it is biochemical. From the text:
FIG. 1A and FIG. 1B show a series of diagrams depicting the activity assay utilized to assay inhibition of Cbl-b activity by a Cbl-b inhibitor. FIG. 1A: The activity assay mixture comprises an N-terminal biotinylated Avi-tagged Cbl-b, an E2 enzyme (i.e., UbcH5B) irreversibly conjugated to Bodipy-Fluorescein tagged ubiquitin (i.e., UbcH5B-Ub), a Src kinase, streptavidin-terbium, and assay buffer. Phosphorylation of Cbl-b by the Src kinase allows UbcH5B-Ub to bind to Cbl-b and bring the Bodipy-Fluorescein tagged ubiquitin in proximity to the streptavidin-terbium bound to the N-terminal biotinylated Avi-tagged Cbl-b. […] FIG. 1B: In the presence of a Cbl-b inhibitor, such as one described herein, Cbl-b is unable to bind UbcH5B-Ub. The lack of a FRET signal indicates Cbl-b is inhibited by the Cbl-b inhibitor. Ub indicates ubiquitin; N-Avi indicates biotinylated Avi-tag at the N-terminus of Cbl-b; inhibitor indicates Cbl-b inhibitor.
The lack of a FRET signal indicates Cbl-b is inhibited by the Cbl-b inhibitor. In FIG. 1A and FIG. 1B, Ub indicates ubiquitin; N-Avi indicates biotinylated Avi-tag at the N-terminus of Cbl-b; and inhibitor indicates Cbl-b inhibitor.

The target in assay [2] is T1, Cbl-b. As to the kind of experiment: Cbl-b activity assay (Cbl-b inhibition assay), TR-FRET of Cbl-b interaction with UbcH5B-Ub. It counts as biochemical. The note with it: assay buffer with 100 mM NaCl, 60 nM Src kinase; read-out: Cbl-b activity IC50. Here is the method:
The ability of candidate compounds to inhibit Cbl-b activity was measured by monitoring the interaction of Cbl-b with UbcH5B-Ub in the presence of the candidate compound.
Fluorescently labeled UbcH5B-Ub was prepared by conjugating ubiquitin (Ub), labeled at its N-terminus with Bodipy-Fluorescein, to UbcH5B, an E2 enzyme, harboring a cysteine to lysine mutation at position 85. […] After incubation in the presence of the candidate compound, the plate was incubated for an additional 1.5 hours in the presence of 60 nM Src kinase with 1 mM ATP and 5 mM MgCl2 (final concentrations). […] The plate was incubated for 1 hour.
Column marked with an asterisk (*) were tested as described above with assay buffer containing 50 mM NaCl instead of 100 mM NaCl and 30 nM Src kinase instead of 60 nM Src kinase. The resulting data for the Cbl-b binding assay was solvent corrected and double referenced prior to analysis. All data were globally fit to a steady-state affinity and kinetic binding model where applicable). Fit parameters were derived from a 1:1 binding model using the Biacore T200 Evaluation Software V2.0 (GE Healthcare) (Table 2).

The structures appear in SMILES notation. A value given as a limit tells only on which side of the number the result lay.

T1 sequence (Q13191 36-427): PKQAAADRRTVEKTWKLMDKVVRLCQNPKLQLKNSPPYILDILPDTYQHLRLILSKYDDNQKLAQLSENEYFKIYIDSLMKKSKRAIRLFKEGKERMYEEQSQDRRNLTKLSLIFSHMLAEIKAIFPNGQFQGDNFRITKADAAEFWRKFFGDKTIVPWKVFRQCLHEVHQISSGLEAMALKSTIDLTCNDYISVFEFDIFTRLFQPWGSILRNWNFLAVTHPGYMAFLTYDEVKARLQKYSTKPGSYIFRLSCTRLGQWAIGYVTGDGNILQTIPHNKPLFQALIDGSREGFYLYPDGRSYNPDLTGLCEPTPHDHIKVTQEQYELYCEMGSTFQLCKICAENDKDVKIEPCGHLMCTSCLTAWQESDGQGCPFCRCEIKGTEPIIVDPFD

Consider `Cn1cnnc1CC1(c2cccc(N3Cc4c(cc(CN5CC[C@@H](F)[C@@H](F)C5)cc4C(F)(F)F)C3=O)c2)COC1` (relative stereo) [Example 634, 6-((cis-3,4-difluoropiperidin-1-yl)methyl)-2-(3-(3-((4-methyl-4H-1,2,4-triazol-3-yl)methyl)oxetan-3-yl)phenyl)-4-(trifluoromethyl)isoindolin-1-one], for which the IC50 was at most 0.1 µM at Cbl-b [1] and under 0.1 µM at Cbl-b [2].

For the compound `Cn1cnnc1CC1(c2cccc(N3Cc4c(cc(CN5CC[C@@H]6OCC[C@@H]6C5)cc4C(F)(F)F)C3=O)c2)COC1` (relative stereo) [Example 708, rel-6-[(3aR,7aS)-hexahydro-2H-furo[3,2-c]pyridin-5-ylmethyl]-2-(3-{3-[(4-methyl-1,2,4-triazol-3-yl)methyl]oxetan-3-yl}phenyl)-4-(trifluoromethyl)-3H-isoindol-1-one], the half-maximal inhibitory concentration (IC50) on Cbl-b [1] is at most 0.1 µM; on Cbl-b [2] it was under 0.1 µM.

In the case of `Cn1cnnc1CC1(c2cccc(N3Cc4c(cc(CN5CC[C@@H]6NCCO[C@@H]6C5)cc4C(F)(F)F)C3=O)c2)COC1` (relative stereo) [Example 713, rel-6-[(4aR,8aS)-octahydropyrido[3,4-b][1,4]oxazin-6-ylmethyl]-2-(3-{3-[(4-methyl-1,2,4-triazol-3-yl)methyl]oxetan-3-yl}phenyl)-4-(trifluoromethyl)-3H-isoindol-1-one], the concentration for half-maximal inhibition (IC50) on Cbl-b [1] is at most 0.1 µM; at Cbl-b [2], under 0.1 µM.

Turning to `CN1CC[C@@H](O)[C@H](Cc2cc3c(c(C(F)(F)F)c2)CN(c2cccc(C4(Cc5nncn5C)COC4)c2)C3=O)C1` (single isomer, unassigned) [Compound 533], the half-maximal inhibitory concentration (IC50) is at most 0.1 µM on Cbl-b [1] and under 0.1 µM at Cbl-b [2].

For the compound `CC(c1cc(C(=O)Nc2cccc(C3(Cc4nncn4C)COC3)c2)nc(C2CC2)n1)N1CCC2(CC2)C1` (stereo in doubt) [Example 592b, (S)-6-(1-(5-azaspiro[2.4]heptan-5-yl)ethyl)-2-cyclopropyl-N-(3-(3-((4-methyl-4H-1,2,4-triazol-3-yl)methyl)oxetan-3-yl)phenyl)pyrimidine-4-carboxamide], the 50% inhibitory concentration (IC50) was at most 0.1 µM on Cbl-b [1] and under 0.1 µM at Cbl-b [2].

For the compound `C[C@H](Sc1nncn1C)c1cccc(NC(=O)c2cccc(N(C)C)c2)c1` [Compound 26, (S)-3-(Dimethylamino)-N-(3-(1-((4-methyl-4H-1,2,4-triazol-3-yl)thio)ethyl)phenyl)benzamide], the figures for the IC50 at Cbl-b [1] and at Cbl-b [2] were at most 10 µM and over 10 µM, respectively.

On to `C[C@H](Sc1nncn1C)c1cccc(NC(=O)c2cccc(N)c2)c1` [Compound 58, (S)-3-amino-N-(3-(1-((4-methyl-4H-1,2,4-triazol-3-yl)thio)ethyl)phenyl)benzamide], for which the IC50 at Cbl-b [1] is at most 10 µM; on Cbl-b [2], 3 to 10 µM.

For the compound `C[C@H](Sc1nncn1C)c1cccc(NC(=O)c2cc3ccccc3c(C(F)(F)F)n2)c1` [Compound 63, (S)-N-(3-(1-((4-methyl-4H-1,2,4-triazol-3-yl)thio)ethyl)phenyl)-1-(trifluoromethyl)isoquinoline-3-carboxamide], the values for the IC50 on Cbl-b [1] and on Cbl-b [2] were at most 10 µM and 3 to 10 µM, respectively.

On to `CC(Sc1nncn1C)c1ccc(OC(F)(F)F)c(NC(=O)c2cccc(C(F)(F)F)n2)c1` (stereo not shown) [Compound 94, N-(5-(1-((4-methyl-4H-1,2,4-triazol-3-yl)thio)ethyl)-2-(trifluoromethoxy)phenyl)-6-(trifluoromethyl)picolinamide], for which the IC50 on Cbl-b [1] is at most 10 µM; on Cbl-b [2] it was 1 to 3 µM.

Consider `C[C@H](Sc1nncn1C)c1ccnc(NC(=O)c2ccc(Cl)c(C(F)(F)F)n2)c1` [Compound 106, (S)-5-chloro-N-(4-(1-((4-methyl-4H-1,2,4-triazol-3-yl)thio)ethyl)pyridin-2-yl)-6-(trifluoromethyl)picolinamide], for which the IC50 is at most 10 µM on Cbl-b [1] and 1 to 3 µM on Cbl-b [2].

As to `C[C@H](Sc1nncn1C)c1ccnc(NC(=O)c2noc3ccccc23)c1` [Compound 115, (S)-N-(4-(1-((4-methyl-4H-1,2,4-triazol-3-yl)thio)ethyl)pyridin-2-yl)benzo[d]isoxazole-3-carboxamide], the figures for the half-maximal inhibitory concentration (IC50) on Cbl-b [1] and at Cbl-b [2] were at most 10 µM and 3 to 10 µM, respectively.
